Literature values in publication PMC10135567, “New Indole-3-Propionic Acid and 5-Methoxy-Indole Carboxylic Acid Derived Hydrazone Hybrids as Multifunctional Neuroprotectors” (Antioxidants, 2023).

Tested on: SH-SY5Y cells and isolated rat-brain synaptosomes
Parameters: method as in PMID 35624746
Conditions: SH-SY5Y cells and rat-brain synaptosomes under toxic agents of oxidative stress; cited from earlier work

O=C(CCn1c(=S)n(CCC(=O)N/N=C/c2cccc(O)c2O)c2ccccc21)N/N=C/c1cccc(O)c1O [VIII]
cellular and synaptosomal viability restored: up to 80%
